Experimental data reported in patent US20110131683A1, “Polypeptide Inducing Dwarfism of Plants, Polynucleotide Coding the Polypeptide, and Those Use” (GENOMINE, INC., priority 2007, published 2011).

How the values were obtained:
Assay type in all cases: in vivo, Arabidopsis thaliana
[1] = tested on: AtGA20ox1, AtGA20ox2 and AtGA3ox1 expression; assay: RT-PCR expression of gibberellin biosynthesis-related genes in SEN::AtGA2ox4 mutant; conditions: FIG. 9
Experimental: Genes associated with GA 2-oxidase activity, flowering and a feedback mechanism of the gibberellin metabolism in the SEN::AtGA2ox4 mutant with a dwarfism phenotype were analyzed for expression patterns. In this regard, total RNA was isolated from flowers, roots, stems, leaves and siliques of the wild-type Arabidopsis thaliana and the SEN::AtGA2ox4 mutant, both grown for 30 days after germination, with the aid of RNasey Plant Mini Kit (QIAGEN, Germany). cDNA was synthesized from 1 μg of each RNA using Superscript III Reverse Transcriptase (INVITROGEN, USA) under the conditions of 65° C., 5 min; 50° C., 60 min; and 70° C., 15 min. Then, PCR was performed using the synthesized cDNAs as templates in the presence of the primers, specific for GA 2-oxidase and flowering genes, listed in Table 1, below. The PCR was initiated by denaturing the template DNA at 94° C. for 2 min and performed with 30 cycles of 94° C., 1 min; 55° C., 1.5 min; and 72° C., 1 min, followed by extension at 72° C. for 15 min. […]
An examination was made about whether the gene of the present invention is involved in the feedback mechanism of the gibberellin metabolism and thus in gibberellin catabolism. For this, AtGA20ox1 and AtGA20ox2, both coding for GA20-oxidase, and AtGA3ox1 coding for GA3-oxidase were analyzed for expression levels in the SEN::AtGA2ox4 mutant. […]

[2] = tested on: proteins up-regulated by AtGA2ox4 overexpression; assay: Two-dimensional electrophoresis of proteins of SEN::AtGA2ox4 mutant; conditions: SEN::AtGA2ox4 mutant grown 30 days, 2-D electrophoresis, Table 2
Experimental: Proteins were isolated from the wild-type Arabidopsis thaliana (FIG. 13), the SEN::AtGA2ox4 mutant (FIG. 14), and the GA3-treated SEN::AtGA2ox4 mutant (FIG. 15), all grown for 30 days after germination, and analyzed for expression pattern by two-dimensional electrophoresis. Protein isolation for each plant was conducted as follows. Each plant was mashed in 10 volumes of a reagent comprising 7M urea, 2M thiourea, 4% (w/v) 3-[(3-cholamidopropy)dimethyammonio]-1-propanesulfonate (CHAPS), 1% (w/v) dithiothreitol (DTT), 2% (v/v) pharmalyte and 1 mM benzamidine, followed by heating at 100° C. for 10 min. After centrifugation at 15,000 rpm for 1 hour, the supernatant was used as a sample for two-dimensional electrophoresis. Protein quantities were determined using the Bradford method (Bradford et al., 1976). For primary isoelectric focusing (IEF), IPG strips were soaked at room temperature for 12-16 hrs in a reswelling solution comprising 7M urea, 2M thiourea, 2% 3-[(3-cholamidopropy)dimethylammonio]-1-propanesulfonate (CHAPS), 1% dithiothreitol (DTT) and 1% pharmalyte. Each protein sample was used in the amount of 200 μg per strip. […] The protein spots were quantified to examine a change in expression level by the analysis of the scanned images using the PDQuest software (version 7.0, BioRad). The quantity of each spot was normalized according to the total intensity of valid spots. […]

[3] = tested on: SEN::AtGA2ox4-9 and SEN::AtGA2ox4-10 dwarfism lines; assay: Phenotype recovery of SEN::AtGA2ox4 mutant by treatment with GA3
Experimental: In order to examine whether the AtGA2ox4 gene is actually involved in gibberellin catabolism, the SEN::AtGA2ox4-9 and the SEN::AtGA2ox4-10 line, both showing dwarfism phenotypes, were grown for 30 days while 10^−4 M GA3 (Sigma, USA) was applied twice at intervals of one week starting from 12 days after germination. Treatment with the active gibberellin GA3 may recover the phenotype of the dwarfism-induced mutant in which gibberellin insufficiency was caused by the overexpression of the AtGA2ox4 gene, to that of the wild-type. Comparisons were made between the mutants treated with or without GA3 (FIGS. 10, 11 and 12). […] This was true of GA3-treated mutants. These facts allow an inference that the gene of the present invention plays an important role in dwarfism induction in plants, but is not involved in the control of flowering time.

Structure (SMILES): C=C1C[C@]23C[C@@]1(O)CC[C@H]2[C@@]12C=C[C@H](O)[C@@](C)(C(=O)O1)[C@H]2[C@@H]3C(=O)O [GA3]
- expression levels of AtGA20ox1, AtGA20ox2 and AtGA3ox1 after GA3 treatment [1]: return the expression levels to those of the wild-type
- proteins up-regulated by AtGA2ox4 overexpression, after GA3 treatment [2]: recovered to the phenotype of the wild-type
- phenotype of dwarfism-induced mutant lines after GA3 treatment ([3]; 10^-4 M GA3 applied twice at intervals of one week starting 12 days after germination, grown 30 days, SEN::AtGA2ox4-9 and -10 lines): recovered almost perfectly to the wild-type phenotype
- flowering time of GA3-treated mutants versus wild-type ([3]; GA3-treated SEN::AtGA2ox4 mutants): not different in flowering time from the wild-type
